From patent US5324648A, “Substituted isocoumarins as serine protease inhibitors and anti-inflammatory agents” (Georgia Tech Research Corporation, priority 1992, dated 1994) come the findings set out here.

Where two headings read alike, the source gives them in different places.

In assay [1] the target is T1, porcine pancreatic elastase (PPE) (Sus scrofa, UniProt P00772).
T1 construct: from tissue; host or cells: porcine pancreas (from the name)
Put plainly: Inactivation of porcine pancreatic elastase (PPE). Format: biochemical.
Description: Inactivation rates of serine proteases by substituted isocoumarins were measured by the incubation method. An aliquot of inhibitor (25 or 50 μl) in Me2 SO was added to a buffered enzyme solution (0.01-2.3 μM) to initiate the inactivation. Aliquots (50 μl) were withdrawn at various intervals and the residual enzymatic activity was measured. Me2 SO concentration in the reaction mixture was 8-12% (v/v). 0.1 Hepes, 0.01M CaCl2, pH 7.5 buffer was utilized for trypsin and coagulation enzymes. 0.1M Hepes, 0.5M NaCl, pH 7.5 was utilized for other serine proteases. […] Peptide thioesters or peptide nitroanilides with appropriate sequence were used as substrates for various serine proteases. All peptide thioester hydrolysis rates were measured with assay mixtures containing 4,4'-dithiodipyridine (ε324 =19800M^-1 cm^-1 ; Grasetti & Murray, Arch. Biochem. Biophys. 119, pp 41-49 (1967)). Peptide 4-nitroanilide nitroanilide hydrolysis was measured at 410 nm (ε410 =8800M^-1 cm^-1 ; Erlanger et al., Arch. Biochem. Biophys. 95, pp 271-278 (1961)). First order inactivation rate constant (kobs) were obtained from plots of ln (vt /vo) vs time, and the correlation coefficients were greater than 0.98.
^a Inactivation rates were measured at 0.1M Hepes, 0.5 NaCl, pH 7.5,
8-12% Me2 SO and 25° C. by incubation method.
^a Inhibition rates were measured in 0.1M Hepes, 0.05M NaCl, pH 7.5
buffer, 8-9% Me2 SO and at 25° C.
^a Inhibition constants were in 0.1M Hepes, 0.5M NaCl, pH 7.5 buffer,
8-9% Me2 SO and at 25° C.
^a Inhibition rates were measured in 0.1M Hepes, 0.5M NaCl, 2.5%
Me2 SO, pH 7,5 and at 25° C.
^a Inhibition was measured in 0.1M Hepes, 0.5M NaCl, pH 7.5 buffer,
5-10% Me2 SO and at 25° C. Suc--Val--Pro--Phe--NA (0.48 mM)
was used as the substrate for chymotrypsin and cat G.
^a Inhibition rates were measured in 0.1M Hepes, 0.5M NaCl, pH 7.5

Assay [2] has as its target T2, human leukocyte elastase (HLE) (Homo sapiens, UniProt P08246).
T2 construct: from tissue; host or cells: human leukocytes (from the name)
T2 sequence (P08246 30-267): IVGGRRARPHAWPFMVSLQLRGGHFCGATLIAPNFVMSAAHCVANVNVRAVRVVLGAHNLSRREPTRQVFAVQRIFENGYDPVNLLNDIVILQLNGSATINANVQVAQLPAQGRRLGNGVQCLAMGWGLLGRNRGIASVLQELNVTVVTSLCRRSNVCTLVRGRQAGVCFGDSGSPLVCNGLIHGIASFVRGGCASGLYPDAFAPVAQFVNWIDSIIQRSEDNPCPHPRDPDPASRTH
Put plainly: Inactivation of human leukocyte elastase (HLE). It counts as biochemical.

The target in the next assay is chymotrypsin (Bos taurus, UniProt P00766). Put plainly: Inactivation of chymotrypsin. It counts as biochemical, bovine. Particulars: read-out: kobs/[I].
The target of the next assay is T3, cathepsin G (Homo sapiens, UniProt P08311).
T3 construct: from tissue; host or cells: human leukocytes
T3 sequence (P08311 21-255): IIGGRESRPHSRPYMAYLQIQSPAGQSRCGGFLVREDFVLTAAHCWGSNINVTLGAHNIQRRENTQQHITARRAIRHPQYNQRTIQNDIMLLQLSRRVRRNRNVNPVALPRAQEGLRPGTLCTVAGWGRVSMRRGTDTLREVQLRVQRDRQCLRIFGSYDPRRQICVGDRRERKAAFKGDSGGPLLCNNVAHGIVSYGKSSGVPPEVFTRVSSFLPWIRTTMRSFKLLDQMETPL
The experiment in a line: Inactivation of cathepsin G. Format: biochemical. The following applies: pH 7.5; Table XII; 2.5% Me2SO, 25° C; [I] 8.7-87 μM; read-out: kobs/[I].

Where [3] appears, read: pH 7.5, Table XII, 2.5% Me2SO, 25° C, [I] 0.7-1.9 μM, read-out: kobs/[I].
The mark [4] stands for this setting: Table XVI, pH 7.5, 25° C, [I] 0.07-710 μM, read-out: kobs/[I].
Setting [5] is: Table XVI, pH 7.5, 25° C, [I] 1.7-58 μM.
The mark [6] stands for this setting: Table XI, pH 7.5, 25° C, [I] 6.3-600 μM, per line, read-out: kobs/[I].
The mark [7] stands for this setting: Table XI, pH 7.5, 25° C, [I] 1.4-6.6 μM, per line, read-out: kobs/[I].

T1 sequence (P00772 27-266): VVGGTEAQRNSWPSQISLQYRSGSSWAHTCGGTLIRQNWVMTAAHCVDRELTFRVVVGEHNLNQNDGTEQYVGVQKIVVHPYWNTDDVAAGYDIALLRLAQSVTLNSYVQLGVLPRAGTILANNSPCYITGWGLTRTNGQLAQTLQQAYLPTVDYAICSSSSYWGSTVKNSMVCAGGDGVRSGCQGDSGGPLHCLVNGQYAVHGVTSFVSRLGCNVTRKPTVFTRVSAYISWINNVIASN

As for `COc1oc(=O)c2cc(NC(=O)Oc3ccccc3)ccc2c1Cl` [7-PhOCONH-4-chloro-3-methoxyisocoumarin, 7-phenoxycarbonylamino-4-chloro-3-methoxyisocoumarin], the kinact/KI in assay [1] (pH 7.5, read-out: kobs/[I]) is 850 M⁻¹ s⁻¹; in assay [2] (pH 7.5, read-out: kobs/[I]), 13000 M⁻¹ s⁻¹. For the molecule `CCCOc1oc(=O)c2cc(NC(=O)Nc3ccccc3)ccc2c1Cl` [7-phenylcarbamoylamino-4-chloro-3-propyloxyisocoumarin], the kinact/KI amounted to 520 M⁻¹ s⁻¹ in assay [1] (pH 7.5, Table XII, 2.5% Me2SO, 25° C, [I] 34-56 μM, read-out: kobs/[I]); 143000 M⁻¹ s⁻¹ in assay [2] (setting [3]); 6100 M⁻¹ s⁻¹ on chymotrypsin (pH 7.5, Table XII, 2.5% Me2SO, 25° C, [I] 3.4-70 μM). In the case of `CC(C)(C)OC(=O)N[C@@H](Cc1ccccc1)C(=O)Nc1ccc2c(Cl)c(OCCCBr)oc(=O)c2c1` [7-(N-t-butyloxycarbonyl-L-phenylalanyl)amino-4-chloro-3-(3-bromopropoxy)isocoumarin], the kinact/KI is 1320 M⁻¹ s⁻¹ in assay [2] (setting [4]) and 490 M⁻¹ s⁻¹ at chymotrypsin (setting [5]).

Consider `CCCOc1oc(=O)c2cc(NC(=O)CSC)ccc2c1Cl` [7-[(2-thiomethyl)acetyl]amino-4-chloro-3-propyloxyisocoumarin], for which the values for the kinact/KI (in assay [2] (setting [3]); on cathepsin G) were above 152000 M⁻¹ s⁻¹ and 28 M⁻¹ s⁻¹, respectively. Consider `CCOc1oc(=O)c2cc(NC(=S)Nc3ccccc3)ccc2c1Cl` [7-phenylthiocarbamoylamino-4-chloro-3-ethoxyisocoumarin], for which the kinact/KI in assay [1] (setting [6]) is 12000 M⁻¹ s⁻¹. In the case of `COc1oc(=O)c2cc(NC(=O)CC(CC(=O)O)c3ccccc3)ccc2c1Cl` (stereo not shown) [7-(3-phenylglutaryl)amino-4-chloro-3-methoxyisocoumarin], the kinact/KI in assay [1] (setting [6]) came to 3100 M⁻¹ s⁻¹; in assay [2] (setting [7]) it was 66000 M⁻¹ s⁻¹. As for `CCNC(=O)Nc1ccc2c(Cl)c(OC)oc(=O)c2c1` [7-EtNHCONH-4-chloro-3-methoxyisocoumarin, 7-ethylcarbamoylamino-4-chloro-3-methoxyisocoumarin], in assay [1] (setting [6]), the kinact/KI came out at 1700 M⁻¹ s⁻¹. The same measure, in the same setting: under `CCOC(=O)Nc1ccc2c(Cl)c(OCC)oc(=O)c2c1` [7-ethoxycarbonylamino-4-chloro-3-ethoxyisocoumarin] stands 3500 M⁻¹ s⁻¹.

`COc1oc(=O)c2cc(NC(=O)Nc3ccccc3)ccc2c1Cl` [7-PhNHCONH-4-chloro-3-methoxyisocoumarin, 7-phenylcarbamoylamino-4-chloro-3-methoxyisocoumarin]: the kinact/KI came out at 7300 M⁻¹ s⁻¹ in assay [1] (setting [6]) and 49000 M⁻¹ s⁻¹ in assay [2] (setting [7]). For the molecule `COC(=O)CCCC(=O)Nc1ccc2c(Cl)c(OC)oc(=O)c2c1` [7-methoxyglutarylamino-4-chloro-3-methoxyisocoumarin], the kinact/KI in assay [1] (setting [6]) came out at 2800 M⁻¹ s⁻¹; in assay [2] (setting [7]), 54000 M⁻¹ s⁻¹. For `CCNC(=S)Nc1ccc2c(Cl)c(OCC)oc(=O)c2c1` [7-ethylthiocarbamoylamino-4-chloro-3-ethoxyisocoumarin], the kinact/KI in assay [1] (setting [6]) came out at 4200 M⁻¹ s⁻¹.

Regarding `CNC(=O)Nc1ccc2c(Cl)c(OC)oc(=O)c2c1` [7-methylcarbamoylamino-4-chloro-3-methoxyisocoumarin], the values for the kinact/KI in assay [1] (setting [6]) and in assay [2] (setting [7]) were 1300 M⁻¹ s⁻¹ and 9460 M⁻¹ s⁻¹, respectively. For the molecule `COc1oc(=O)c2cc(N=C=O)ccc2c1Cl` [7-NCO-4-chloro-3-methoxyisocoumarin, 7-isocyanato-4-chloro-3-methoxyisocoumarin], the kinact/KI was determined as 650 M⁻¹ s⁻¹ in assay [1] (pH 7.5, read-out: kobs/[I]) and 9200 M⁻¹ s⁻¹ in assay [2] (pH 7.5, read-out: kobs/[I]). Turning to `CCCOc1oc(=O)c2cc(NC(=S)NCc3ccccc3)ccc2c1Cl` [7-benzylthiocarbamoylamino-4-chloro-3-propyloxyisocoumarin], the kinact/KI in assay [2] (setting [3]) was above 131000 M⁻¹ s⁻¹. For `COC(=O)c1ccccc1C(=O)Nc1ccc2c(Cl)c(OC)oc(=O)c2c1` [7-(o-methoxyphthalyl)amino-4-chloro-3-methoxyisocoumarin], the kinact/KI in assay [1] (setting [6]) is 7100 M⁻¹ s⁻¹. With `CCOC(=O)Nc1ccc2c(Cl)c(OC)oc(=O)c2c1` [7-EtOCONH-4-chloro-3-methoxyisocoumarin, 7-ethoxycarbonylamino-4-chloro-3-methoxyisocoumarin], the kinact/KI in assay [1] (setting [6]) was 2000 M⁻¹ s⁻¹; in assay [2] (setting [7]) it was 47000 M⁻¹ s⁻¹. Take `COc1oc(=O)c2cc(NC(=O)N(CCc3ccccc3)Cc3ccccc3)ccc2c1Cl` [7-(N-benzyl-N-phenylethylcarbamoyl)amino-4-chloro-3-methoxyisocoumarin]: the kinact/KI was found to be 17 M⁻¹ s⁻¹ in assay [1] (setting [6]) and 12000 M⁻¹ s⁻¹ in assay [2] (setting [7]). For `COc1oc(=O)c2cc(NC(N)=O)ccc2c1Cl` [7-H2 NCONH-4-chloro-3-methoxyisocoumarin, 7-carbamoylamino-4-chloro-3-methoxyisocoumarin], the kinact/KI in assay [1] (setting [6]) worked out at 2100 M⁻¹ s⁻¹. As to `COc1oc(=O)c2cc(NC(=O)C(NS(=O)(=O)c3ccc(C)cc3)c3ccccc3)ccc2c1Cl` (stereo not drawn) [7-(N-tosyl-α-phenylglycyl)amino-4-chloro-3-methoxyisocoumarin], the figures for the kinact/KI in assay [1] (setting [6]) and in assay [2] (setting [7]) were 1500 M⁻¹ s⁻¹ and 84000 M⁻¹ s⁻¹, respectively. For `COc1oc(=O)c2cc(NC(=O)NC(C)C)ccc2c1Cl` [7-isopropylcarbamoylamino-4-chloro-3-methoxyisocoumarin], in that order: 2300 M⁻¹ s⁻¹ and 9000 M⁻¹ s⁻¹.

In the case of `COc1oc(=O)c2cc(NC(=O)OCC3c4ccccc4-c4ccccc43)ccc2c1Cl` [7-Fmoc-NH-4-chloro-3-methoxyisocoumarin, 7-(9-fluorenylmethoxycarbonyl)amino-4-chloro-3-methoxyisocoumarin], the kinact/KI turned out to be 20 M⁻¹ s⁻¹ in assay [1] (setting [6]) and 10000 M⁻¹ s⁻¹ in assay [2] (setting [7]). As to `O=C(CCc1ccccc1)Nc1ccc2c(Cl)c(OCCCBr)oc(=O)c2c1` [7-dihydrocinnamoylamino-4-chloro-3-(3-bromopropoxy)isocoumarin], the kinact/KI in assay [2] (pH 7.5, Table XVI, biphasic plot, read-out: kobs/[I] (biphasic, first value)) was found to be 35600 M⁻¹ s⁻¹; in assay [2] (pH 7.5, Table XVI, biphasic plot, read-out: kobs/[I] (biphasic, second value)), 9870 M⁻¹ s⁻¹; at chymotrypsin (setting [5]), 600 M⁻¹ s⁻¹. In the case of `CCCOc1oc(=O)c2cc(NC(=O)c3cccc([N+](=O)[O-])c3)ccc2c1Cl` [7-(m-nitrobenzoyl)amino-4-chloro-3-propyloxyisocoumarin], the kinact/KI in assay [2] (setting [3]) was above 210000 M⁻¹ s⁻¹; at cathepsin G it was 4 M⁻¹ s⁻¹.

For the molecule `COC(=O)CCC(=O)Nc1ccc2c(Cl)c(OC)oc(=O)c2c1` [7-methoxysuccinylamino-4-chloro-3-methoxyisocoumarin], the kinact/KI in assay [1] (setting [6]) is 2200 M⁻¹ s⁻¹; in assay [2] (setting [7]), 43000 M⁻¹ s⁻¹. As to `CCCOc1oc(=O)c2cc(NC(=O)[C@@H](NC(=O)OC(C)(C)C)C(C)C)ccc2c1Cl` [7-(N-t-butyloxycarbonyl-valyl)amino-4-chloro-3-propyloxyisocoumarin], the kinact/KI in assay [2] (setting [3]) came to 64000 M⁻¹ s⁻¹; on cathepsin G it was 17 M⁻¹ s⁻¹. As for `COc1oc(=O)c2cc(NC(=O)OCc3ccccc3)ccc2c1Cl` [7-benzyloxycarbonylamino-4-chloro-3-methoxyisocoumarin], the kinact/KI in assay [1] (setting [6]) was determined as 260 M⁻¹ s⁻¹; in assay [2] (setting [7]), 71000 M⁻¹ s⁻¹. `O=C(Nc1ccccc1)Nc1ccc2c(Cl)c(OCCBr)oc(=O)c2c1` [7-phenylcarbamoylamino-4-chloro-3-(2-bromoethoxy)isocoumarin]: the kinact/KI in assay [1] (Table XVI, pH 7.5, 25° C, [I] 0.04-2.0 mM, read-out: kobs/[I]) amounted to 36 M⁻¹ s⁻¹; in assay [2] (pH 7.5, Table XVI, second order, equimolar inhibitor and enzyme, read-out: kobs/[I]), 1.2e+06 M⁻¹ s⁻¹; on chymotrypsin (setting [5]), 12 M⁻¹ s⁻¹. On to `COc1oc(=O)c2cc(NC(=O)c3ccccc3C(=O)O)ccc2c1Cl` [7-(o-phthalyl)amino-4-chloro-3-methoxyisocoumarin], for which the figures for the kinact/KI in assay [1] (setting [6]) and in assay [2] (setting [7]) were 2700 M⁻¹ s⁻¹ and 52000 M⁻¹ s⁻¹, respectively. In the case of `CCCOc1oc(=O)c2cc(NC(=S)Nc3ccccc3)ccc2c1Cl` [7-phenylthiocarbamoylamino-4-chloro-3-propyloxyisocoumarin], the kinact/KI in assay [2] (setting [3]) is above 166000 M⁻¹ s⁻¹. In the case of `CC(C)(C)OC(=O)N[C@H](Cc1ccccc1)C(=O)Nc1ccc2c(Cl)c(OCCCBr)oc(=O)c2c1` [7-(N-t-butyloxycarbonyl-D-phenylalanyl)amino-4-chloro-3-(3-bromopropoxy)isocoumarin], the kinact/KI in assay [2] (setting [4]) came out at 1480 M⁻¹ s⁻¹; on chymotrypsin (setting [5]), 70 M⁻¹ s⁻¹. For `COc1oc(=O)c2cc(NC(=O)NCC(C)C)ccc2c1Cl`, the figures for the kinact/KI in assay [1] (setting [6]) and in assay [2] (setting [7]) were 3200 M⁻¹ s⁻¹ and 20000 M⁻¹ s⁻¹, respectively. The like results for `COC(=O)Nc1cccc(C(=O)Nc2ccc3c(Cl)c(OC)oc(=O)c3c2)c1` [7-(m-methoxycarbonylaminobenzoyl)amino-4-chloro-3-methoxyisocoumarin] were, in that order, 2500 M⁻¹ s⁻¹ and 100000 M⁻¹ s⁻¹.

Turning to `COc1oc(=O)c2cc(NC(=O)C(F)(F)C(F)(F)C(F)(F)F)ccc2c1Cl` [7-heptafluorobutyroylamino-4-chloro-3-methoxyisocoumarin], the kinact/KI in assay [1] (pH 7.5, read-out: kobs/[I]) was 1100 M⁻¹ s⁻¹; in assay [2] (pH 7.5, read-out: kobs/[I]), 47000 M⁻¹ s⁻¹.
